# Publication PMC5325712 (Journal of medicinal chemistry, 2017)
# What was measured:
# [1] = test system: D2R; settings: at concentrations over 50 μM; cited from earlier work
# [2] = molecular target: T1, D3R (Homo sapiens, UniProt P35462); settings: Table 1; ratio of binding Ki values D2R/D3R
# [3] = molecular target: D2R long isoform (Homo sapiens, UniProt P14416); experiment: β-arrestin recruitment assay; assay type: cell-based; settings: dopamine curve-shift / inhibition of dopamine stimulation
# Sequence of D2R long isoform (P14416 whole entry, canonical isoform): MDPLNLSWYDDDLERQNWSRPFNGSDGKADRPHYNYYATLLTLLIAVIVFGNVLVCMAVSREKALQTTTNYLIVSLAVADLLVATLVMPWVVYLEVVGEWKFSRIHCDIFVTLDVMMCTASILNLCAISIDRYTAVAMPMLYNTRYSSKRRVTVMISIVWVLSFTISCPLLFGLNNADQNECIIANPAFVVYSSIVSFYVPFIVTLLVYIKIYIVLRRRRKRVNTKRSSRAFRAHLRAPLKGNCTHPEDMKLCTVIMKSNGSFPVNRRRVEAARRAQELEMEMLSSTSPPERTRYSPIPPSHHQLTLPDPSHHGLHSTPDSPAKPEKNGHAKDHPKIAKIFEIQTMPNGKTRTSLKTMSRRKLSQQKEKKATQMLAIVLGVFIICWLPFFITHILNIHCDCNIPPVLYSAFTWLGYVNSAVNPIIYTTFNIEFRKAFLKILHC
# [4] = molecular target: T1, D3R; experiment: β-arrestin recruitment assay; settings: dopamine curve-shift assays, best fit by F-test
# [5] = molecular target: D3R; settings: read-out: D3R receptor binding affinities; cited from earlier work
# [6] = test system: D2R; settings: 6 compared to 5; cited from earlier work
# T1 sequence (P35462 whole entry, canonical isoform): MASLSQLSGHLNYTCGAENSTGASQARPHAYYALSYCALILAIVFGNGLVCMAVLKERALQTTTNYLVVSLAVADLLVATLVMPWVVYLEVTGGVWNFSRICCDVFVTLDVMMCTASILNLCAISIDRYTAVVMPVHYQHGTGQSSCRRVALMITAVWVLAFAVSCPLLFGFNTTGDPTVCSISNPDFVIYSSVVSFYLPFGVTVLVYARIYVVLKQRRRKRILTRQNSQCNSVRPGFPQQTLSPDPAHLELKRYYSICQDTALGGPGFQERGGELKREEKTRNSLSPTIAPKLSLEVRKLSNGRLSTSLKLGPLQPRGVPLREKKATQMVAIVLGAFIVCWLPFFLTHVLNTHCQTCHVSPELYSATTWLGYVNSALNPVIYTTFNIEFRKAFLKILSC
smiles,measurement,setting,value
CC(C)NC(=O)c1cc2ccccc2[nH]1 [Compound 13b],mode of action at the D2R,[1],allosteric antagonist of the D2R with modest negative cooperativity with dopamine
"N#Cc1cccc(N2CCNCC2)c1 [Compound 8, 3-(Piperazin-1-yl)benzonitrile]",D2/D3,[2],7.5–9.1
"N#Cc1ccc2c(c1)CNCC2 [Compound 9b, 7-cyano-1,2,3,4-tetrahydroisoquinoline]",D2/D3,[2],7.5–9.1
CCN1CCCC1CNC(=O)c1cc(S(N)(=O)=O)ccc1OC (stereo not shown) [sulpiride],mechanism of antagonism at the D2R,[3],competitive antagonist
same,mechanism of antagonism at the D3R,[4],competitive antagonist
O=C(NC/C=C/CN1CCN(c2cccc(Cl)c2Cl)CC1)c1ccc(-c2ccccn2)cc1 [Compound 6],Ki,[5],~1 nM
same,lower affinity at D2R,[6],~ 2 fold
